Measurements from patent publication US9328099B2, “Cyanomethylpyrazole carboxamides as janus kinase inhibitors” (Merck Sharp & Dohme Corp., priority 2011, dated 2016).
Read-outs that look alike come from different tables or passages of the source.

Legend:
JAK1 = JAK1 (Homo sapiens (Human), UniProt P23458); test: Jak Biochemical HTRF Assay, JAK1; conditions: read-out: JAK1 IC50
Source text: (§1) Jak Biochemical HTRF Assay Protocol
(§2) Subsequent reagent additions employed an Agilent Bravo.

JAK2 = JAK2 (Homo sapiens (Human), UniProt O60674); test: Jak Biochemical HTRF Assay, JAK2
Sequence of JAK2 (O60674 849-1124): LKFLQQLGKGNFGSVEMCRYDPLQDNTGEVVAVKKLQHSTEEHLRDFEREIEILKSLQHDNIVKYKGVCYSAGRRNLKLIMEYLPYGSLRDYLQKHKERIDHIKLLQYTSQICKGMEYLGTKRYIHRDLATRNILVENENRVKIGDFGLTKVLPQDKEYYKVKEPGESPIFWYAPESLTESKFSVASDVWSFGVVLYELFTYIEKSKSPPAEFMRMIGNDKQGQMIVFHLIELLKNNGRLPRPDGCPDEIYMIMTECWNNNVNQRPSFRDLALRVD
Source text: as §1, §2

[1] = HTRF biochemical assay, GST-tagged catalytic domain, top concentration tested […]

Sequence of JAK1 (P23458 875-1153): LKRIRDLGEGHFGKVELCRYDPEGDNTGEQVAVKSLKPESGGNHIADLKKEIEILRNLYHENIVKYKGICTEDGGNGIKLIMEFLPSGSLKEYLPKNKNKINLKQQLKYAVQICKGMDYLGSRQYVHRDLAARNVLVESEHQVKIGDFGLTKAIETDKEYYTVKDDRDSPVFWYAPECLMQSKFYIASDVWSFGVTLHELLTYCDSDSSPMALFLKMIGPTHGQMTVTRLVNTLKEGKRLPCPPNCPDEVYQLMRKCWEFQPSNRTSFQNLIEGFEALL

Row | SMILES | IC50 (JAK1; [1]) [nM] | IC50 (JAK2; [1]) [nM] | IC50 (JAK1) [nM] | IC50 (JAK2) [nM]
1 | Cc1cc(Nc2nn(C3(CC#N)CCN(C(=O)OC(C)(C)C)CC3)cc2C(N)=O)ncn1 [Example 13-11, tert-butyl 4-(4-carbamoyl-3-(6-methylpyrimidin-4-ylamino)-1H-pyrazol-1-yl)-4-(cyanomethyl)piperidine-1-carboxylate] | 5 | 126 |  | 
2 | CC(C)(C)OC(=O)N1CCC(CC#N)(n2cc(C(N)=O)c(Nc3ccc4c(c3)CNC4=O)n2)CC1 [Example 12-7, tert-butyl 4-{4-carbamoyl-3-[(1-oxo-2,3-dihydro-1H-isoindol-5-yl)amino]-1H-pyrazol-1-yl}-4-(cyanomethyl)piperidine-1-carboxylate] | 0.1 | 2 |  | 
3 | CC(CO)OC(=O)N1CCC(CC#N)(n2cc(C(N)=O)c(Nc3ccc(F)cc3)n2)CC1 (stereo not shown) [Example 31, 2-Hydroxy-1-methylethyl 4-{4-carbamoyl-3-[(4-fluorophenyl)amino]-1H-pyrazol-1-yl}-4-(cyanomethyl)piperidine-1-carboxylate] | 0.4 | 8 |  | 
4 | CC1=NOC(CN2CCC(CC#N)(n3cc(C(N)=O)c(Nc4ccnc(F)c4)n3)CC2)C1 (stereo not shown) [Example 22-42, 1-{4-(cyanomethyl)-1-[(3-methyl-4,5-dihydroisoxazol-5-yl)methyl]piperidin-4-yl}-3-[(2-fluoropyridin-4-yl)amino]-1H-pyrazole-4-carboxamide] | 18 | 582 |  | 
5 | CC(C)(C)OC(=O)N1CCC(CC#N)(n2cc(C(N)=O)c(Nc3ccc(F)c(F)c3)n2)CC1 [Example 9-28, tert-butyl 4-{4-carbamoyl-3-[(3,4-difluorophenyl)amino]-1H-pyrazol-1-yl}-4-(cyanomethyl)piperidine-1-carboxylate] | 1 | 24 |  | 
6 | COc1ccc2cc(CN3CCC(CC#N)(n4cc(C(N)=O)c(Nc5ccccc5)n4)CC3)ccc2c1 [Example 21-13, 1-{4-(cyanomethyl)-1-[(6-methoxynaphthalen-2-yl)methyl]piperidin-4-yl}-3-(phenylamino)-1H-pyrazole-4-carboxamide] | 24 | 297 |  | 
7 | CC(C)(C)OC(=O)N1CCC(CC#N)(n2cc(C(N)=O)c(Nc3ccnc(Cl)c3)n2)CC1 [Example 9-29, tert-butyl 4-{4-carbamoyl-3-[(2-chloropyridin-4-yl)amino]-1H-pyrazol-1-yl}-4-(cyanomethyl)piperidine-1-carboxylate] | 0.1 | 3 |  | 
8 | N#CCC1(n2cc(C(N)=O)c(Nc3ccccc3)n2)CCN(Cc2c(Cl)cccc2Cl)CC1 [Example 21-14, 1-[4-(cyanomethyl)-1-(2,6-dichlorobenzyl)piperidin-4-yl]-3-(phenylamino)-1H-pyrazole-4-carboxamide] | 18 | 224 |  | 
9 | N#CCC1(n2cc(C(N)=O)c(Nc3ccnc(F)c3)n2)CCN(Cc2ccc(O)cc2)CC1 [Example 22-60, 1-[4-(cyanomethyl)-1-(4-hydroxybenzyl)piperidin-4-yl]-3-[(2-fluoropyridin-4-yl)amino]-1H-pyrazole-4-carboxamide] | 0.1 | 6 |  | 
10 | N#CCC1(n2cc(C(N)=O)c(Nc3ccnc(F)c3)n2)CCN(Cc2cn3ccccc3n2)CC1 [Example 22-12, 1-[4-(cyanomethyl)-1-(imidazo[1,2-a]pyridin-2-ylmethyl)piperidin-4-yl]-3-[(2-fluoropyridin-4-yl)amino]-1H-pyrazole-4-carboxamide] | 124 | > 1500 |  | 
11 | CC(C)(C)OC(=O)N1CCC(CC#N)(n2cc(C(N)=O)c(Nc3ccncn3)n2)CC1 [Example 13-1, tert-Butyl 4-(4-carbamoyl-3-(pyrimidin-4-ylamino)-1H-pyrazol-1-yl)-4-(cyanomethyl)piperidine-1-carboxylate] | 3 | 139 |  | 
12 | C[Si](C)(C)COC(=O)N1CCC(CC#N)(n2cc(C(N)=O)c(Nc3ccc(F)cc3)n2)CC1 [Example 30-10, (trimethylsilyl)methyl 4-(4-carbamoyl-3-(4-fluorophenylamino)-1H-pyrazol-1-yl)-4-(cyanomethyl)piperidine-1-carboxylate] |  |  | 21 | 745
13 | COc1cccc(CN2CCC(CC#N)(n3cc(C(N)=O)c(Nc4ccnc(F)c4)n3)CC2)c1 [Example 22-63, 1-[4-(cyanomethyl)-1-(3-methoxybenzyl)piperidin-4-yl]-3-[(2-fluoropyridin-4-yl)amino]-1H-pyrazole-4-carboxamide] | 0.5 | 20 |  | 
14 | Cn1cc(-c2cccc(Nc3nn(C4(CC#N)CCN(C(=O)OCC(F)(F)F)CC4)cc3C(N)=O)c2)cn1 [Example 10-5, 2,2,2-trifluoroethyl 4-(4-carbamoyl-3-(3-(1-methyl-1H-pyrazol-4-yl)phenylamino)-1H-pyrazol-1-yl)-4-(cyanomethyl)piperidine-1-carboxylate] | 0.2 | 21 |  | 
15 | N#CCC1(n2cc(C(N)=O)c(Nc3ccc(F)cc3)n2)CCN(c2cncc(C#N)c2)CC1 [Example 3-21, 1-[4-(cyanomethyl)-1-(5-cyanopyridin-3-yl)piperidin-4-yl]-3-[(4-fluorophenyl)amino]-1H-pyrazole-4-carboxamide] | 0.6 | 20 |  | 

Continued, in another order:

Row | IC50 (JAK1; [1]) [nM] | IC50 (JAK2; [1]) [nM] | SMILES | IC50 (JAK1) [nM] | IC50 (JAK2) [nM]
16 | 0.6 | 17 | N#CCC1(n2cc(C(N)=O)c(Nc3ccnc(F)c3)n2)CCC(NCc2cccc(Cl)c2)CC1 (stereo not drawn) [Example 41-20, Cis or trans 1-{4-[(3-chlorobenzyl)amino]-1-(cyanomethyl)cyclohexyl}-3-[(2-fluoropyridin-4-yl)amino]-1H-pyrazole-4-carboxamide] |  | 
17 | 139 | > 1500 | N#CCC1(n2cc(C(N)=O)c(Nc3ccc(F)cc3)n2)CCC(Nc2ccc(C(F)(F)F)cc2)CC1 (stereo not drawn) [Example 40-73, Cis or trans 1-[1-(cyanomethyl)-4-{[4-(trifluoromethyl)phenyl]amino}cyclohexyl]-3-[(4-fluorophenyl)amino]-1H-pyrazole-4-carboxamide] |  | 
18 | 46 | 1390 | N#CCC1(n2cc(C(N)=O)c(Nc3ccnc(F)c3)n2)CCC(NCc2ccccn2)CC1 (stereo not drawn) [Example 41-17, Cis or trans 1-{1-(cyanomethyl)-4-[(pyridin-2-ylmethyl)amino]cyclohexyl}-3-[(2-fluoropyridin-4-yl)amino]-1H-pyrazole-4-carboxamide] |  | 
19 | 0.04 | 0.2 | N#CCC1(n2cc(C(N)=O)c(Nc3ccc(F)cc3)n2)CCC(NCc2ccccc2)CC1 (stereo not drawn) [Example 40-92, Cis or trans 1-[4-(benzylamino)-1-(cyanomethyl)cyclohexyl]-3-[(4-fluorophenyl)amino]-1H-pyrazole-4-carboxamide] |  | 
20 | 8 | 218 | N#CC[C@]1(n2cc(C(N)=O)c(Nc3ccnc(F)c3)n2)CC[C@H](NCc2ccc(F)cc2F)CC1 [Example 41-1, Trans 1-(1-(cyanomethyl)-4-((2,4-difluorobenzyl)amino)cyclohexyl)-3-((2-fluoropyridin-4-yl)amino)-1H-pyrazole-4-carboxamide] |  | 
21 | 0.08 | 5 | N#CCC1(n2cc(C(N)=O)c(Nc3ccc(S(=O)(=O)C(F)F)cc3)n2)CCC(NC2CCOCC2)CC1 (stereo not drawn) [Example 40-26, Cis or trans 1-[1-(cyanomethyl)-4-(tetrahydro-2H-pyran-4-ylamino)cyclohexyl]-3-({4-[(difluoromethyl)sulfonyl]phenyl}amino)-1H-pyrazole-4-carboxamide] |  | 
22 | 188 | 1480 | N#CCC1(n2cc(C(N)=O)c(Nc3ccccc3)n2)CN(C(=O)OCCN2CCCC2=O)C1 [Example 30-64, 2-(2-oxopyrrolidin-1-yl)ethyl 3-[4-carbamoyl-3-(phenylamino)-1H-pyrazol-1-yl]-3-(cyanomethyl)azetidine-1-carboxylate] |  | 
23 | 46 | 1430 | N#CCC1(n2cc(C(N)=O)c(Nc3ccnc(F)c3)n2)CCC(NCc2cccc(Cl)c2)CC1 (stereo not drawn) [Example 41-23, Cis or trans 1-{4-[(3-chlorobenzyl)amino]-1-(cyanomethyl)cyclohexyl}-3-[(2-fluoropyridin-4-yl)amino]-1H-pyrazole-4-carboxamide] |  | 
24 | 10 | 185 | CC(C)NC(=O)N1CC(CC#N)(n2cc(C(N)=O)c(Nc3ccccc3)n2)C1 [Example 38-3, 1-{3-(cyanomethyl)-1-[(1-methylethyl)carbamoyl]azetidin-3-yl}-3-(phenylamino)-1H-pyrazole-4-carboxamide] |  | 
25 | 9 | 84 | N#CCC1(n2cc(C(N)=O)c(Nc3ccc(F)cc3)n2)CCC(N2Cc3ccccc3C2)CC1 (stereo not drawn) [Example 40-90, Cis or trans 1-[1-(cyanomethyl)-4-(1,3-dihydro-2H-isoindol-2-yl)cyclohexyl]-3-[(4-fluorophenyl)amino]-1H-pyrazole-4-carboxamide] |  | 
26 | 0.9 | 38 | N#CCC1(n2cc(C(N)=O)c(Nc3ccc(F)cc3)n2)CCN(C(=O)OCC2CC2(F)F)CC1 (stereo not shown) [Example 30-6, (2,2-difluorocyclopropyl)methyl 4-(4-carbamoyl-3-(4-fluorophenylamino)-1H-pyrazol-1-yl)-4-(cyanomethyl)piperidine-1-carboxylate] |  | 
27 | 0.05 | 1 | N#CCC1(n2cc(C(N)=O)c(Nc3ccc(S(=O)(=O)C(F)F)cc3)n2)CCC(Nc2ccccc2)CC1 (stereo not drawn) [Example 40-102, Cis or trans 1-[1-(cyanomethyl)-4-(phenylamino)cyclohexyl]-3-({4-[(difluoromethyl)sulfonyl]phenyl}amino)-1H-pyrazole-4-carboxamide] |  | 
28 | 12 | 271 | N#CCC1(n2cc(C(N)=O)c(Nc3ccccc3)n2)CN(C(=O)OCc2cccnc2)C1 [Example 30-65, pyridin-3-ylmethyl 3-[4-carbamoyl-3-(phenylamino)-1H-pyrazol-1-yl]-3-(cyanomethyl)azetidine-1-carboxylate] |  | 
29 | 2 | 58 | N#CCC1(n2cc(C(N)=O)c(Nc3ccccc3)n2)CCN(C(=O)OCc2ccncc2)CC1 [Example 30-40, pyridin-4-ylmethyl 4-[4-carbamoyl-3-(phenylamino)-1H-pyrazol-1-yl]-4-(cyanomethyl)piperidine-1-carboxylate] |  | 
